Laboratory results: US20260356800A1, “POLYMORPH OF PHENYL PYRROLE HYDRAZINE CARBOXIMIDAMIDE COMPOUND” (SYNACT PHARMA ApS, priority 2022, published 2026)
≈ marks a conversion by molar mass, not a printed value. Structures can show the parent of a compound that is named as a salt. Values belong to the compound of their own block, whether it stands above or below them.

What was measured:
[1] = Thermodynamic solubility in buffer at 24 h (HPLC of supernatant); format: physicochemical; settings: for solubility at 24 h: 0.2 m hcl/kcl, as free-base
From the text: The solubility of a compound may be assessed by adding a surplus of the compound to a volume of solvent such that some of the compound is not dissolved, then isolating the non-dissolved compound and measuring the amount. The solubility of a compound may alternatively be assessed by adding a surplus of the compound to a volume of solvent such that some of the compound is not dissolved, and then measure the amount of compound in solution. Measuring the amount of compound in solution may be done using any suitable method, such as HPLC, titration, or spectrometry.
The solubility of AP1189 freebase, tosylate salt and fumarate salt were assessed in buffer solutions. An amount of the compound was suspended in buffer and agitated at ambient temperature for 24 hr, before the supernatant was sampled and analysed for the content of AP1189 by HPLC.

[2] = Initial polymorphism assessment: solubility of AP1189 freebase in solvent systems (aliquot addition); format: physicochemical; settings: ambient, gently heated to ca. 40 °C if solid remained
Protocol: An initial polymorphism assessment was carried out in order to identify any potential alternate forms. The initial polymorphism assessment was carried out as follows: To ca. 7 mg of freebase Pattern 1 from DCM evaporation the appropriate solvent system was added in aliquots of 50 μL and if solid remained the vial was gently heated to ca. 40 °C to aid dissolution. Solvent addition was continued until the material had fully dissolved or 1 mL of the appropriate solvent system had been added (<10 mg/mL). Anti-solvent (t-BME) was added dropwise (with stirring) at ambient. If the solutions were already present as slurries prior to addition of anti-solvent, no anti-solvent was added. The experiments were temperature cycled between ambient temperature and 40 °C in 4 hour cycles for ca. 24 h with agitation. Slurries were isolated by centrifugation and solutions allowed to evaporate at ambient temperature. XRPD analysis was carried out for the solids which were obtained.

[3] = system: MC1R; settings: cited from earlier work
[4] = system: MC1R; settings: biased dual agonist; cited from earlier work
[5] = system: MC3R; settings: biased dual agonist; cited from earlier work
[6] = system: cAMP generation (MC1R and MC3R); settings: cited from earlier work
[7] = system: MC1R-induced melanogenesis; settings: cited from earlier work
[8] = system: ERK1/2-phosphorylation; settings: alternative pathways; cited from earlier work
[9] = system: Ca^2± mobilisation; settings: alternative pathways; cited from earlier work

solubility at 24 h ([1]; pH 1.26, 0.2 M HCl/KCl, initial pH 1.22, 24 h pH 1.26, input 31 mM, ambient temperature): 0.31 mM | Solubility at low pH (in words) ([1]; low pH, e.g. pH 1.2-1.3 or pH 4.5): low solubility at low pH
Structure (SMILES): NC(N)=N/N=C/C=C/c1cccn1-c1ccccc1[N+](=O)[O-] [Tosylate Salt Pattern 1, 2-{3-[1-(2-nitrophenyl)-1H-pyrrol-2-yl]prop-2-en-1-ylidine}hydrazine-1-carboximidamide tosylate]

solubility at 24 h ([1]; pH 1.29, 0.2 M HCl/KCl, initial pH 2.05 → 1.24, 24 h pH 1.29, input 83* mM (estimated), ambient temperature): > 44.1 mM | solubility at 24 h ([1]; pH 1.54, FaSSGF (Fasted State Simulated Gastric Fluid), initial pH 1.60, 24 h pH 1.54, ambient temperature): 13.9 mM (≈ 4140 µg/mL)
Structure (SMILES): NC(N)=N/N=C/C=C/c1cccn1-c1ccccc1[N+](=O)[O-] [AP1189 freebase Pattern 1, 2-{3-[1-(2-nitrophenyl)-1H-pyrrol-2-yl]prop-2-en-1-ylidine}hydrazine-1-carboximidamide]
Solubility at pH 4.5 (in words) ([1]; pH 4.5, compared to AP1189 fumarate Pattern 1): high solubility at pH 4.5 compared to test compound AP1189 fumarate Pattern 1

solubility at 24 h ([1]; pH 1.29, 0.2 M HCl/KCl, initial pH 1.35 → 1.18, 24 h pH 1.29, input 38 mM, ambient temperature): 10.9 mM
Structure (SMILES): NC(N)=N/N=C/C=C/c1cccn1-c1ccccc1[N+](=O)[O-] [Fumarate Salt Pattern 1]

solubility ([2]; Water): < 7000 µg/mL | solubility ([2]; organic solvent or mixture, 2-Methyl THF): ≥ 10000 µg/mL | solubility ([2]; organic solvent or mixture, 2-Propanol): < 7000 µg/mL | solubility ([2]; organic solvent or mixture, 90% 2-Propanol: 10% Water (% v/v) (calculated aw 0.6)): ≥ 10000 µg/mL | solubility ([2]; organic solvent or mixture, 98.5% Ethanol : 1.5% Water (% v/v) (calculated aw 0.2)): ≥ 15000 µg/mL | solubility ([2]; organic solvent or mixture, Acetone): ≥ 49000 µg/mL | solubility ([2]; organic solvent or mixture, Acetonitrile): ≥ 27000 µg/mL | solubility ([2]; organic solvent or mixture, Dichloromethane): < 7000 µg/mL | solubility ([2]; organic solvent or mixture, Dimethylsulfoxide): ≥ 136000 µg/mL | solubility ([2]; organic solvent or mixture, Ethanol): ≥ 13000 µg/mL | solubility ([2]; organic solvent or mixture, Ethyl Acetate): < 7000 µg/mL | solubility ([2]; organic solvent or mixture, Heptane): < 7000 µg/mL | solubility ([2]; organic solvent or mixture, Methanol): ≥ 142000 µg/mL | solubility ([2]; organic solvent or mixture, Methylethyl Ketone): ≥ 17000 µg/mL | solubility ([2]; organic solvent or mixture, Methylisobutyl Ketone): < 7000 µg/mL | solubility ([2]; organic solvent or mixture, Tetrahydrofuran): ≥ 35000 µg/mL | solubility ([2]; organic solvent or mixture, Toluene): < 7000 µg/mL | solubility ([2]; organic solvent or mixture, tert-Butylmethyl ether): < 7000 µg/mL | Solubility at acidic conditions (in words) ([1]; acidic conditions): highly soluble at acidic conditions | Solubility at pH 1.2 (in words) [1]: high solubility at pH 1.2
Structure (SMILES): NC(N)=N/N=C/C=C/c1cccn1-c1ccccc1[N+](=O)[O-] [AP1189, 2-{3-[1-(2-nitrophenyl)-1H-pyrrol-2-yl]prop-2-en-1-ylidine}hydrazine-1-carboximidamide]
Solubility at pH 1.2 (in words) ([1]; listed as AP1189 free base): high solubility at pH 1.2 compared to the test compound AP1189 fumarate Pattern 1 | binding to MC1R [3]: shown to bind the MC1R | agonism at MC1R [4]: biased dual agonist at receptors MC1R and MC3R | agonism at MC3R [5]: biased dual agonist at receptors MC1R and MC3R | canonical cAMP generation [6]: does not provoke canonical cAMP generation | MC1R-induced melanogenesis [7]: no MC1R-induced melanogenesis | ERK1/2-phosphorylation [8]: appear to induce alternative pathways including ERK1/2-phosphorylation | Ca2+ mobilisation [9]: appear to induce alternative pathways including ERK1/2-phosphorylation and Ca^2 mobilisation
